# The source made the active and inactive calls.
# Assays:
# BJ [1] = assay: cytotoxicity toward BJ-TERT fibroblasts, dose response, cell-based, RAS-independent, luminescence (AID 1933); format: functional; details: Homo sapiens
# [2] = Luminescence Cell-Based Dose Retest to Confirm Inhibitors of Cancer Stem Cells. [Related pubchem assays (depositor defined):AID2717, AID2721]; format: functional; details: Homo sapiens
# [3] = cytotoxicity in HEK-293T cells, dose response, cytotoxicity control for TCR NF-kB inhibitor project, luminescence, T-cell screen hits (AID 489026); format: functional, cell-based;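 also: cells exposed to compound about 14 hours before the viability readout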
# [4] = cytotoxicity toward DRD oncogenic fibroblasts, dose response, cell-based, non-viral oncogenic, luminescence (AID 1934); format: functional; details: Homo sapiens
# BJ [5] = assay: cytotoxicity toward BJ-TERT-LT-ST fibroblasts, dose response, cell-based, RAS-independent, luminescence (AID 1935); format: functional; details: Homo sapiens;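 also: BJ fibroblasts immortalized with TERT plus LT and ST oncogenes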
# BJ [6] = assay: cells; format: functional, cell-based; details: Homo sapiens
# Cytochrome P450 3A4 = Cytochrome P450 3A4 (Homo sapiens, UniProt P08684); details: Potency;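 also: confirmatory qHTS run detecting inhibitors and substrates of CYP3A4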
# [7] = biological target: Induced myeloid leukemia cell differentiation protein Mcl-1 (Homo sapiens, UniProt Q07820); format: functional
# [8] = biological target: T1, Calpain-2 catalytic subunit (Sus scrofa, UniProt P43367); assay: pig calpain II inhibitor potency, dose response, biochemical, fluorogenic peptide substrate (AID 1420); format: functional
# T1 sequence (P43367 whole entry): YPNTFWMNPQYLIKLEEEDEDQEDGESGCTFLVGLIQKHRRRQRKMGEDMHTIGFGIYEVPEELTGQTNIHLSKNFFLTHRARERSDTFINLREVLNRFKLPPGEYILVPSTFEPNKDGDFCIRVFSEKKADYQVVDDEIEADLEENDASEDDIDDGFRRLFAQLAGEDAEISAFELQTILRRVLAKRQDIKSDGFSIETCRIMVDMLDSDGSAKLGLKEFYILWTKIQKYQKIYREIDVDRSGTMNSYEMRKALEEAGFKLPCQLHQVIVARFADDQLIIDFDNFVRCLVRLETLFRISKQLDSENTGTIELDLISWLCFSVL
# [9] = biological target: T2, Sentrin-specific protease 6 (Homo sapiens, UniProt Q9GZR1); format: functional;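 also: Luminescence-based dose-response confirmatory assay of SENP6 inhibition, following up an ultra-high-throughput screen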
# T2 sequence (Q9GZR1 whole entry): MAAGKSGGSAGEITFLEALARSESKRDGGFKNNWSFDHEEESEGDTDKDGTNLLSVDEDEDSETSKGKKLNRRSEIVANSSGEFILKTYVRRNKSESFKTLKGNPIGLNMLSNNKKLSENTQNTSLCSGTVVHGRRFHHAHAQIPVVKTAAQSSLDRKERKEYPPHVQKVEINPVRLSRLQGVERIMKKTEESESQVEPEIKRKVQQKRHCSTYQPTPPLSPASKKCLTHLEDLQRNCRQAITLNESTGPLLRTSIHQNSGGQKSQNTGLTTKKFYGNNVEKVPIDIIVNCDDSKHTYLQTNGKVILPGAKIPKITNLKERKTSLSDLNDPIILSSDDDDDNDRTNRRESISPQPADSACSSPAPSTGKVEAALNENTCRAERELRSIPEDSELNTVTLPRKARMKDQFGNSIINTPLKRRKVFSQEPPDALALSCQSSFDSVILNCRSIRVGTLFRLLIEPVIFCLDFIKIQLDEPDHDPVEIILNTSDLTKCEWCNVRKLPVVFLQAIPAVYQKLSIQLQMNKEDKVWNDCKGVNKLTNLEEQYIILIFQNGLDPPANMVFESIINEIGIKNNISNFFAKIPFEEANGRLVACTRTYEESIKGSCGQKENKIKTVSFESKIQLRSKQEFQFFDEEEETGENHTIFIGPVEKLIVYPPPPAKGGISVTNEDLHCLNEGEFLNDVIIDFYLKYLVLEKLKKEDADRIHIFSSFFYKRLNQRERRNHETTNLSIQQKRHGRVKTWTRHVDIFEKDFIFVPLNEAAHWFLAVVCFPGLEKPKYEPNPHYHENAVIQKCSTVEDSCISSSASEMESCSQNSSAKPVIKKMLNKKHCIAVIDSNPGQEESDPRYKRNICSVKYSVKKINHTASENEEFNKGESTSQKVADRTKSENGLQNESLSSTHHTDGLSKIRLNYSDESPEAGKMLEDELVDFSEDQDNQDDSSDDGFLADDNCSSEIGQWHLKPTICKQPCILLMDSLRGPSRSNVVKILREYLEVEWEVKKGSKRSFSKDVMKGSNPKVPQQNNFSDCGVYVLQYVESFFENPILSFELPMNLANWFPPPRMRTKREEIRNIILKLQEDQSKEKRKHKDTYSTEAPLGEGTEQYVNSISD
# [10] = biological target: T3, Sentrin-specific protease 8 (Homo sapiens, UniProt Q96LD8); format: functional;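 also: luminescence read-out of SENP8 inhibition, dose-response confirmation following an ultra-high-throughput screen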
# T3 sequence (Q96LD8 whole entry): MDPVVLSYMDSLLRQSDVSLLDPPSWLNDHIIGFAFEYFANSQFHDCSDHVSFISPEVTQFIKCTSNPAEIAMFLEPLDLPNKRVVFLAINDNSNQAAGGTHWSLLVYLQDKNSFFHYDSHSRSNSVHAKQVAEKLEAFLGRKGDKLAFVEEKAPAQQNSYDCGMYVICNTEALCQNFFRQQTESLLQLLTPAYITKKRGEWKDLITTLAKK
# [11] = growth suppression of PTEN-null colon cells, dose response, cell-based, HCT116 PTEN knockout (AID 1047); format: functional;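 also: HCT116 colon tumor cells with PTEN knocked out; cells exposed to compound for 60 hours before readout; potency for loss of cell viability measured by luminescence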
# [12] = growth suppression of beta-catenin-knockout colon cells, dose response, cell-based, HCT116, human colon tumor (AID 1045); format: functional;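 also: HCT116 colon tumor cells with beta catenin knocked out; cells exposed to compound for 60 hours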
# Caspase-3 = biological target: T4, Caspase-3 (Homo sapiens, UniProt P42574); format: functional;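 also: Dose-response selectivity test against caspase-3 for candidate inhibitors of sentrin-specific proteases (SENPs)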
# T4 sequence (P42574 whole entry): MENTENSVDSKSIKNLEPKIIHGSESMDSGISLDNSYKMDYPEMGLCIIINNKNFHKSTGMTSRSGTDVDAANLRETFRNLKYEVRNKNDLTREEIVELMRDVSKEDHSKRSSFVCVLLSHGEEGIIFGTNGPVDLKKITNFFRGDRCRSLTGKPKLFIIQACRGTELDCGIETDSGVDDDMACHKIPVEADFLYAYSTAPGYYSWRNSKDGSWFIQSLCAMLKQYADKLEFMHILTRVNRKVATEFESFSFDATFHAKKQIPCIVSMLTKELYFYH
# [13] = biological target: T5, Sentrin-specific protease 7 (Homo sapiens, UniProt Q9BQF6); format: functional;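 also: Luminescence-based dose-response confirmation of ultra-high-throughput screening hits, measuring inhibition of SENP7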
# T5 sequence (Q9BQF6 whole entry): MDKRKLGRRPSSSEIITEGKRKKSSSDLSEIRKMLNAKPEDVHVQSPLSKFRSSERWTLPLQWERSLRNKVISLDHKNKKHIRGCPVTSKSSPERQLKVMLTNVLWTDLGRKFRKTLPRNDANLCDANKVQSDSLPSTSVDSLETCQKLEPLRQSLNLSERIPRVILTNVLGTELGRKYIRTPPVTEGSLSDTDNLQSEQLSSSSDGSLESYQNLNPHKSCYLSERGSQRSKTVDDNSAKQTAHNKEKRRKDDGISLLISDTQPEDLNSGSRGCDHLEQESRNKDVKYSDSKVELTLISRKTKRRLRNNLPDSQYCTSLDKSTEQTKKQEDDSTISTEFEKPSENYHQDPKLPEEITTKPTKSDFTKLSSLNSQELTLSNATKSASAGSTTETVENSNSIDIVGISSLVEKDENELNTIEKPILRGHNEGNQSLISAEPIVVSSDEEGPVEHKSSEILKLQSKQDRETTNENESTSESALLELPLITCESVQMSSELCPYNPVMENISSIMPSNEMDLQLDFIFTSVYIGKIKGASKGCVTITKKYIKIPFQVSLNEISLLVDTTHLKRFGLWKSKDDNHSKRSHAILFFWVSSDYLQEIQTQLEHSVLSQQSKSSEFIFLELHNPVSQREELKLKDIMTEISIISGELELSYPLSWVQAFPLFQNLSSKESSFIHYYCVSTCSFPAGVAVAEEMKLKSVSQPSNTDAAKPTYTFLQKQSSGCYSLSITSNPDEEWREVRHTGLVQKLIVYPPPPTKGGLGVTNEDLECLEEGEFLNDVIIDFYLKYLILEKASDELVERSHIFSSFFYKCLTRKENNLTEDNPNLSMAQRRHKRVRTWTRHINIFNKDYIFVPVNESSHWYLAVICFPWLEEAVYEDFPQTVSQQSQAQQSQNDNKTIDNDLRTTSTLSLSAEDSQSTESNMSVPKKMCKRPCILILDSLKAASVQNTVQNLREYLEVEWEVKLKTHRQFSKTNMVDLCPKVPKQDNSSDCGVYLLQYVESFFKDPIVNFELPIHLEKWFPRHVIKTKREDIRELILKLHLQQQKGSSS
# Prothrombin = Prothrombin (Homo sapiens, UniProt P00734); assay: Thrombin 1536 HTS Dose Response Confirmation. [Related pubchem assays: 1046 (Thrombin 1536 HTS; hits were confirmed in this assay)]; format: functional
# Cytochrome P450 2C9 = Cytochrome P450 2C9 (Homo sapiens, UniProt P11712)
# Cytochrome P450 2C19 = Cytochrome P450 2C19 (Homo sapiens, UniProt P33261); assay: Cytochrome panel assay with activity outcomes. Panel member name: p450-cyp2c19 Compounds with AC50 equal or less than 10 uM are considered active; format: functional; details: read-out: AC50
# Cytochrome P450 2C19, sequence (P33261 whole entry): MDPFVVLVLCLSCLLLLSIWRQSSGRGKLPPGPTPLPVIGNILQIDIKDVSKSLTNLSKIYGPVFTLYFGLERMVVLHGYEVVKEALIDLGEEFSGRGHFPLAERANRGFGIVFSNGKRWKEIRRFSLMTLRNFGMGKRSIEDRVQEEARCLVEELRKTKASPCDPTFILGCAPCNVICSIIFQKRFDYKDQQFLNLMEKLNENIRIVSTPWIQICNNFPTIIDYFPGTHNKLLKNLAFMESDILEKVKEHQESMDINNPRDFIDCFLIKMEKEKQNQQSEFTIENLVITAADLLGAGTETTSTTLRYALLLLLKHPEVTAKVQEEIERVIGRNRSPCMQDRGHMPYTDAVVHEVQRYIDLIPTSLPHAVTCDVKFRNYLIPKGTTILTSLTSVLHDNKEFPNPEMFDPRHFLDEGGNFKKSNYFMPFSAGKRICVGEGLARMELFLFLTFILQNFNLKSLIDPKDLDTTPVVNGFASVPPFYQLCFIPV
# Cytochrome P450 3A4, sequence (P08684 whole entry): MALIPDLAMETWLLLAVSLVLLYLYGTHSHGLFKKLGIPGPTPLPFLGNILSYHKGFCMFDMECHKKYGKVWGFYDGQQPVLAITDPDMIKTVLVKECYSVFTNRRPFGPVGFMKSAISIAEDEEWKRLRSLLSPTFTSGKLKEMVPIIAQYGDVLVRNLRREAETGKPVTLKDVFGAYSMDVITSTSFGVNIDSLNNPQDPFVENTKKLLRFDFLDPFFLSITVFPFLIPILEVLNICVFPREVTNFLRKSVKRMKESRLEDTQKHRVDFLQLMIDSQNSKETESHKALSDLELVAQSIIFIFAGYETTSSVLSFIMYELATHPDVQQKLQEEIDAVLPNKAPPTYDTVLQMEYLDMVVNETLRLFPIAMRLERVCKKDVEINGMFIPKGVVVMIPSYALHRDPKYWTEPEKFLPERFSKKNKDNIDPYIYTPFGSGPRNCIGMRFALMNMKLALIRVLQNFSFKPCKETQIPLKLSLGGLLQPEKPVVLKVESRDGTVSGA
# Induced myeloid leukemia cell differentiation protein Mcl-1, sequence (Q07820 whole entry): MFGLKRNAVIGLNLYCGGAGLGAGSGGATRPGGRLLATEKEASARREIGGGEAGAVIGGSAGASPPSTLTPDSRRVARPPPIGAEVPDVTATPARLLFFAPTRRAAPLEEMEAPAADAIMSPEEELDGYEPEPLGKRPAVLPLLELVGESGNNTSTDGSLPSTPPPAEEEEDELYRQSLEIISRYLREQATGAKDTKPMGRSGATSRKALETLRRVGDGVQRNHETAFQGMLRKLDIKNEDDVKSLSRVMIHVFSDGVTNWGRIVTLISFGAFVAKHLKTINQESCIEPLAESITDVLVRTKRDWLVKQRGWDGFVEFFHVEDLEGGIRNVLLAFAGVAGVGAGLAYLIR
# Cytochrome P450 2C9, sequence (P11712 whole entry): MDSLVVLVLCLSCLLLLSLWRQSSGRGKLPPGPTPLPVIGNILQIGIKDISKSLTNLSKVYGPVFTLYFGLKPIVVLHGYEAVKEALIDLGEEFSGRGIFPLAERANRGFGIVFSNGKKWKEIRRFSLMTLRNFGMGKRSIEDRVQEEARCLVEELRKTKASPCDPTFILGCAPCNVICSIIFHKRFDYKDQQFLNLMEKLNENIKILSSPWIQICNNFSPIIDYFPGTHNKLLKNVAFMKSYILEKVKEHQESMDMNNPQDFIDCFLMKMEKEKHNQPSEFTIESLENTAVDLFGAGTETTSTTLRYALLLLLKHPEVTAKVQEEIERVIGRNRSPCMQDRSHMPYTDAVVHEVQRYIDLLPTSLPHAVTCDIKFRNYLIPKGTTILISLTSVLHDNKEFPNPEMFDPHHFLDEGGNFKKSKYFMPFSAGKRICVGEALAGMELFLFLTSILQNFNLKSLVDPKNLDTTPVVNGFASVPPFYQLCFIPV
compound,measurement,setting,value
CCCC(=O)Nc1nc2ccc(NC(=O)c3c(F)c(F)c(OC)c(F)c3F)cc2s1,EC50,BJ [1],4.47 µM (active)
same,AC50,[2],0.367 µM (active)
same,IC50,[3],> 80 µM (inactive)
same,EC50,[4],2.2 µM (active)
same,EC50,BJ [5],77.5 µM (inconclusive)
same,EC50,BJ [6],> 150 µM (not active)
CC1CC(O)[C@]2(O)[C@]13CC(=O)OC[C@@]2(C)[C@@](C)(O)C(=O)C3 (some centres not stated),AC50,Cytochrome P450 3A4,31.6 µM (inconclusive)
COc1ccc(/C=N/Nc2nncc3ccccc23)cc1,EC50,BJ [1],8.72 µM (active)
same,EC50,[4],7.41 µM (active)
same,EC50,BJ [5],18.6 µM (active)
same,EC50,BJ [6],9.05 µM (active)
OC1=C2C(=Nc3ccc4ncccc4c3C2c2ccc(O)c(O)c2)CCC1 (configuration not stated),IC50,[7],4.38 µM (active)
COc1cc(-n2c(=O)c3ccccc3n(Cc3cccc(C)c3)c2=O)cc(OC)c1OC,IC50,[8],19.3 µM (active)
COc1ccc(C(=O)Nc2cccc(-c3cc4ccccc4oc3=O)c2)cc1[N+](=O)[O-],IC50,[8],12.3 µM (not active)
CC[C@]1(O)CC(O[C@@H]2CC(N(C)C)C(O)C(C)O2)c2c(cc3c(c2O)C(=O)c2c(O)cccc2C3=O)C1C(=O)OC (some centres not stated),AC50,Cytochrome P450 3A4,39.8 µM (inconclusive)
Oc1[nH]c2ccccc2c1N=Nc1nc2ccccc2s1,IC50,[9],66.4 µM (active)
same,IC50,[10],> 100 µM (inactive)
same,EC50,[11],26.5 µM (active)
same,EC50,[12],32.3 µM (active)
same,IC50,[7],3.84 µM (active)
same,IC50,Caspase-3,27.6 µM (active)
same,IC50,[13],4.3 µM (active)
CC(=O)C1CCC2C3CC(C)C4=CC(=O)CC[C@@]4(C)C3C(O)C[C@@]12C (some centres not stated),AC50,Cytochrome P450 3A4,31.6 µM (inconclusive)
COc1ccc(C(=O)n2nc(-c3ccccc3)nc2SC)cc1,IC50,Prothrombin,0.913 µM (active)
same,AC50,Cytochrome P450 2C9,0.141 µM (inconclusive)
Oc1ccccc1C1Nc2cccc3cccc(c23)N1,IC50,[7],3.25 µM (active)
same,AC50,Cytochrome P450 2C19,3.16 µM (inconclusive)
